Experimental data as given in PubChem BioAssay AID2060624 (Molecular Pharmacology Branch, DTP, NCI, 2025).

Tested on: 217524-143-R1-J4-PDC spheroids with HUVEC/MSC, viability
Experiment: Anticancer human tumor 217524-143-R1-J4-PDC patient-derived pancreatic carcinoma cell line growth inhibition [CLK]
Details: for IC50: curve of first compound; for viability, T/C: stronger effect = lower value; active means viability on the fitted dose curve at most 10% of control; inactive means the rest
Method in brief: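 Multi-cell-type spheroids combined patient-derived tumor cells with HUVEC endothelial cells and human mesenchymal stem cells. Paired agents were dosed in half-log steps down from about clinical Cmax, or from 10 microM where Cmax was unknown.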

[1] = second compound 0.0316 µM, first compound 0.0316 µM
[2] = second compound 0.0316 µM, first compound 0.1 µM
[3] = second compound 0.0316 µM, first compound 0.316 µM
[4] = second compound 0.0316 µM, first compound 1 µM
[5] = second compound 0.0316 µM, first compound 3.16 µM
[6] = second compound 0.0316 µM, first compound 10 µM
[7] = second compound 0.1 µM, first compound 0.0316 µM
[8] = second compound 0.1 µM, first compound 0.1 µM
[9] = second compound 0.1 µM, first compound 0.316 µM
[10] = second compound 0.1 µM, first compound 1 µM
[11] = second compound 0.1 µM, first compound 3.16 µM
[12] = second compound 0.1 µM, first compound 10 µM
[13] = second compound 0.316 µM, first compound 0.0316 µM
[14] = second compound 0.316 µM, first compound 0.1 µM
[15] = second compound 0.316 µM, first compound 0.316 µM
[16] = second compound 0.316 µM, first compound 1 µM
[17] = second compound 0.316 µM, first compound 3.16 µM
[18] = second compound 0.316 µM, first compound 10 µM
[19] = second compound 1 µM, first compound 0.0316 µM
[20] = second compound 1 µM, first compound 0.1 µM
[21] = second compound 1 µM, first compound 0.316 µM
[22] = second compound 1 µM, first compound 1 µM
[23] = second compound 1 µM, first compound 3.16 µM
[24] = second compound 1 µM, first compound 10 µM
[25] = second compound 3.16 µM, first compound 0.0316 µM
[26] = second compound 3.16 µM, first compound 0.1 µM
[27] = second compound 3.16 µM, first compound 0.316 µM
[28] = second compound 3.16 µM, first compound 1 µM
[29] = second compound 3.16 µM, first compound 3.16 µM
[30] = second compound 3.16 µM, first compound 10 µM
[31] = second compound 10 µM, first compound 0.0316 µM
[32] = second compound 10 µM, first compound 0.1 µM
[33] = second compound 10 µM, first compound 0.316 µM
[34] = second compound 10 µM, first compound 1 µM
[35] = second compound 10 µM, first compound 3.16 µM
[36] = second compound 10 µM, first compound 10 µM
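Further: spheroids exposed to agents for seven days before reading.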
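Wherever viability, T/C is given: 100% = DMSO vehicle control viability.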

C#Cc1c(F)ccc2cc(O)cc(-c3ncc4c(N5CC6CCC(C5)N6)nc(OCC56CCCN5CC(F)C6)nc4c3F)c12 (stereo not given) + CNC(=O)c1ccc(Nc2nc(OC3CCCC3)c3c(-c4ccc5nc(C)oc5c4)c[nH]c3n2)c(OC)c1
< 31.6 nM: IC50 (second compound 0.1 µM) | IC50 (second compound 0.316 µM) | IC50 (second compound 1 µM) | IC50 (second compound 3.16 µM) | IC50 (second compound 10 µM)
> 10000 nM: IC50 (second compound 0.0316 µM)
inactive: viability, T/C [1] 84.3% | viability, T/C [2] 98.2% | viability, T/C [3] 90.8% | viability, T/C [4] 101% | viability, T/C [5] 89.4% | viability, T/C [6] 69% | viability, T/C [7] 47.5% | viability, T/C [8] 39.2% | viability, T/C [9] 53.6% | viability, T/C [10] 42.4% | viability, T/C [11] 44.5% | viability, T/C [12] 30.8% | viability, T/C [13] 38.5% | viability, T/C [14] 50.3% | viability, T/C [15] 38.2% | viability, T/C [16] 40.9% | viability, T/C [17] 38.7% | viability, T/C [18] 24.3% | viability, T/C [19] 33.1% | viability, T/C [20] 30% | viability, T/C [21] 26.1% | viability, T/C [22] 35.5% | viability, T/C [23] 24.5% | viability, T/C [24] 18.9% | viability, T/C [25] 29.1% | viability, T/C [26] 29.5% | viability, T/C [27] 32.6% | viability, T/C [28] 26.7% | viability, T/C [29] 26.2% | viability, T/C [30] 19.4% | viability, T/C [31] 26.3% | viability, T/C [32] 24.2% | viability, T/C [33] 27.8% | viability, T/C [34] 23.4% | viability, T/C [35] 24.9% | viability, T/C [36] 19.7%

C=C(F)C(=O)N1CCN(c2nc(OCC3CCCN3C)nc3c2CCN(c2cccc4cccc(Cl)c24)C3)CC1CC#N (stereo not given) + CNC(=O)c1ccc(Nc2nc(OC3CCCC3)c3c(-c4ccc5nc(C)oc5c4)c[nH]c3n2)c(OC)c1
5260 nM: IC50 (second compound 0.0316 µM)
< 31.6 nM: IC50 (second compound 0.1 µM) | IC50 (second compound 0.316 µM) | IC50 (second compound 1 µM) | IC50 (second compound 3.16 µM) | IC50 (second compound 10 µM)
active: viability, T/C [6] 0.48% | viability, T/C [12] 0.82% | viability, T/C [18] 1.22% | viability, T/C [24] 0.35% | viability, T/C [30] 0.34% | viability, T/C [36] 0.42%
inactive: viability, T/C [1] 80.1% | viability, T/C [2] 77.7% | viability, T/C [3] 97.1% | viability, T/C [4] 85.7% | viability, T/C [5] 104% | viability, T/C [7] 46.5% | viability, T/C [8] 43% | viability, T/C [9] 34.7% | viability, T/C [10] 45.3% | viability, T/C [11] 37.9% | viability, T/C [13] 39.3% | viability, T/C [14] 42.9% | viability, T/C [15] 41.9% | viability, T/C [16] 28.2% | viability, T/C [17] 28.2% | viability, T/C [19] 32.5% | viability, T/C [20] 33.8% | viability, T/C [21] 30.9% | viability, T/C [22] 23.4% | viability, T/C [23] 21.8% | viability, T/C [25] 27.8% | viability, T/C [26] 40.8% | viability, T/C [27] 25.6% | viability, T/C [28] 23.8% | viability, T/C [29] 19.6% | viability, T/C [31] 26.5% | viability, T/C [32] 22.6% | viability, T/C [33] 27.6% | viability, T/C [34] 25.4% | viability, T/C [35] 18.5%

CC(CO)NC(=O)c1cc(-c2ccc(Cl)cc2)nn(-c2cnn(C)c2)c1=O (stereo not given) + CNC(=O)c1ccc(Nc2nc(OC3CCCC3)c3c(-c4ccc5nc(C)oc5c4)c[nH]c3n2)c(OC)c1
> 10000 nM: IC50 (second compound 0.0316 µM)
< 31.6 nM: IC50 (second compound 0.1 µM) | IC50 (second compound 0.316 µM) | IC50 (second compound 1 µM) | IC50 (second compound 3.16 µM) | IC50 (second compound 10 µM)
inactive: viability, T/C [1] 101% | viability, T/C [2] 81.4% | viability, T/C [3] 86.5% | viability, T/C [4] 105% | viability, T/C [5] 106% | viability, T/C [6] 84.2% | viability, T/C [7] 44.8% | viability, T/C [8] 42.2% | viability, T/C [9] 46.1% | viability, T/C [10] 51.3% | viability, T/C [11] 47.4% | viability, T/C [12] 43.5% | viability, T/C [13] 48.2% | viability, T/C [14] 39.8% | viability, T/C [15] 44.8% | viability, T/C [16] 40.1% | viability, T/C [17] 38.9% | viability, T/C [18] 38.7% | viability, T/C [19] 26.2% | viability, T/C [20] 30.1% | viability, T/C [21] 26.2% | viability, T/C [22] 32.7% | viability, T/C [23] 28.3% | viability, T/C [24] 25% | viability, T/C [25] 33.1% | viability, T/C [26] 26.2% | viability, T/C [27] 32.4% | viability, T/C [28] 31.8% | viability, T/C [29] 28.8% | viability, T/C [30] 20.9% | viability, T/C [31] 31.3% | viability, T/C [32] 25.7% | viability, T/C [33] 24.1% | viability, T/C [34] 24.4% | viability, T/C [35] 24.7% | viability, T/C [36] 20.6%

CC(Nc1ccc2c(c1)OCCn1cc(N3C(=O)OCC3C(F)F)nc1-2)C(N)=O (stereo not given) + CNC(=O)c1ccc(Nc2nc(OC3CCCC3)c3c(-c4ccc5nc(C)oc5c4)c[nH]c3n2)c(OC)c1
< 31.6 nM: IC50 (second compound 0.1 µM) | IC50 (second compound 0.316 µM) | IC50 (second compound 1 µM) | IC50 (second compound 3.16 µM) | IC50 (second compound 10 µM)
inactive: viability, T/C [1] 63.3% | viability, T/C [2] 36.5% | viability, T/C [3] 15.6% | viability, T/C [7] 31.9% | viability, T/C [8] 20.7% | viability, T/C [9] 11.4% | viability, T/C [13] 24.7% | viability, T/C [14] 13.8% | viability, T/C [19] 16.8% | viability, T/C [25] 17.7% | viability, T/C [31] 18.6% | viability, T/C [32] 10.6%
55.8 nM: IC50 (second compound 0.0316 µM)
active: viability, T/C [4] 8.68% | viability, T/C [5] 6.12% | viability, T/C [6] 4.83% | viability, T/C [10] 7.98% | viability, T/C [11] 5.53% | viability, T/C [12] 4.2% | viability, T/C [15] 7.07% | viability, T/C [16] 4.72% | viability, T/C [17] 3.59% | viability, T/C [18] 3.01% | viability, T/C [20] 10.2% | viability, T/C [21] 5.1% | viability, T/C [22] 3.22% | viability, T/C [23] 3.05% | viability, T/C [24] 2.02% | viability, T/C [26] 9.35% | viability, T/C [27] 4.79% | viability, T/C [28] 3.52% | viability, T/C [29] 2.61% | viability, T/C [30] 2.12% | viability, T/C [33] 6.17% | viability, T/C [34] 2.83% | viability, T/C [35] 3.46% | viability, T/C [36] 2.14%

COc1c(OCCCN2CCOCC2)ccc2c3n(c(=NC(=O)c4cnc(N)nc4)nc12)CCN3 + CNC(=O)c1ccc(Nc2nc(OC3CCCC3)c3c(-c4ccc5nc(C)oc5c4)c[nH]c3n2)c(OC)c1
< 3.16 nM: IC50 (second compound 0.1 µM) | IC50 (second compound 0.316 µM) | IC50 (second compound 1 µM) | IC50 (second compound 3.16 µM) | IC50 (second compound 10 µM)
inactive: viability, T/C (second compound 0.0316 µM, first compound 0.00316 µM) 74.9% | viability, T/C (second compound 0.0316 µM, first compound 0.01 µM) 38.7% | viability, T/C [1] 10.4% | viability, T/C (second compound 0.1 µM, first compound 0.00316 µM) 36.7% | viability, T/C (second compound 0.1 µM, first compound 0.01 µM) 21.8% | viability, T/C (second compound 0.316 µM, first compound 0.00316 µM) 22.1% | viability, T/C (second compound 0.316 µM, first compound 0.01 µM) 14.2% | viability, T/C (second compound 1 µM, first compound 0.00316 µM) 19.9% | viability, T/C (second compound 1 µM, first compound 0.01 µM) 10.9% | viability, T/C (second compound 3.16 µM, first compound 0.00316 µM) 21% | viability, T/C (second compound 3.16 µM, first compound 0.01 µM) 11.8% | viability, T/C (second compound 10 µM, first compound 0.00316 µM) 16.7%
active: viability, T/C [2] 4.29% | viability, T/C [3] 2.9% | viability, T/C [4] 2.31% | viability, T/C [7] 9.86% | viability, T/C [8] 3.54% | viability, T/C [9] 3.16% | viability, T/C [10] 2.09% | viability, T/C [13] 7.78% | viability, T/C [14] 3.17% | viability, T/C [15] 2.58% | viability, T/C [16] 2.49% | viability, T/C [19] 4.57% | viability, T/C [20] 3.24% | viability, T/C [21] 1.78% | viability, T/C [22] 1.77% | viability, T/C [25] 5.14% | viability, T/C [26] 2.24% | viability, T/C [27] 1.69% | viability, T/C [28] 1.26% | viability, T/C (second compound 10 µM, first compound 0.01 µM) 9.36% | viability, T/C [31] 5% | viability, T/C [32] 2.58% | viability, T/C [33] 1.86% | viability, T/C [34] 1.37%
6.97 nM: IC50 (second compound 0.0316 µM)
